Results taken from PMC9694777, “Fractionation and Extraction Optimization of Potentially Valuable Compounds and Their Profiling in Six Varieties of Two Nicotiana Species” (Molecules, 2022).
In brackets after ≈: the same amount, converted by molar mass. Blank lines part the entries; values can stand above or below the compound they belong to.

Assay: physchem
Text: Determination of the small molecule content in a complex plant matrix depends on the understanding of minimum solubility in the chosen extraction solvent. […] Often, tests on mixture are hardly reproducible on pure compounds if this aspect is not routinely considered in the workflow. We performed a general testing of best solvent systems to compare a wide range of small molecules of interest to understand the limitations of general approaches within a complex plant matrix such as Nicotiana.
For each of the 29 reference compounds, 2 mg was weighed into a 15 mL glass tube and dissolved in the minimum amount of the test solvent by gradually adding the solvent with a micropipette until complete dissolution or to a final volume of 10.0 mL. Seven solvents with polarities from nonpolar to polar were chosen for the test: hexane (C6H14), CH2Cl2, CH2Cl2/MeOH (4:1, v/v), EtOH, MeOH, MeOH/H2O (7:3, v/v), and H2O. The consumed solvents and their volumes were recorded for each reference compound.

[1] = 22 °C, organic solvent or mixture, thermodynamic from solid, Solubility in C6H14
[2] = 22 °C, organic solvent or mixture, thermodynamic from solid, Solubility in C6H14, solvent hexane (C6H14); room temperature (21–23 °C); 2 mg compound, solvent added until dissolution or 10.0 mL
[3] = 22 °C, organic solvent or mixture, thermodynamic from solid, Solubility in CH2Cl2, solvent dichloromethane (CH2Cl2); room temperature (21–23 °C)
[4] = 22 °C, organic solvent or mixture, thermodynamic from solid, Solubility in CH2Cl2/MeOH (4:1), solvent CH2Cl2/MeOH (4:1, v/v); room temperature (21–23 °C)
[5] = 22 °C, organic solvent or mixture, thermodynamic from solid, Solubility in EtOH, solvent ethanol; room temperature (21–23 °C)
[6] = 22 °C, organic solvent or mixture, thermodynamic from solid, Solubility in MeOH, solvent methanol; room temperature (21–23 °C)
[7] = 22 °C, organic solvent or mixture, thermodynamic from solid, Solubility in MeOH/H2O (7:3), solvent MeOH/H2O (7:3, v/v); room temperature (21–23 °C)
[8] = 22 °C, water, thermodynamic from solid, Solubility in H2O, solvent water; room temperature (21–23 °C)
[9] = solvent MeOH/H2O (7:3, v/v); room temperature (21–23 °C)
[10] = solvent ethanol; room temperature (21–23 °C)
[11] = solvent methanol; room temperature (21–23 °C)
[12] = solvent water; room temperature (21–23 °C)
[13] = CH2Cl2/MeOH (4:1, v/v), 22 °C, organic solvent or mixture, thermodynamic from solid, Solubility in CH2Cl2/MeOH (4:1), solvent CH2Cl2/MeOH (4:1, v/v); room temperature (21–23 °C)
[14] = MeOH/H2O (7:3, v/v), 22 °C, organic solvent or mixture, thermodynamic from solid, Solubility in MeOH/H2O (7:3), solvent MeOH/H2O (7:3, v/v); room temperature (21–23 °C)
[15] = dichloromethane (CH2Cl2), 22 °C, organic solvent or mixture, thermodynamic from solid, Solubility in CH2Cl2, solvent dichloromethane (CH2Cl2); room temperature (21–23 °C)
[16] = ethanol, 22 °C, organic solvent or mixture, thermodynamic from solid, Solubility in EtOH, solvent ethanol; room temperature (21–23 °C)
[17] = methanol, 22 °C, organic solvent or mixture, thermodynamic from solid, Solubility in MeOH, solvent methanol; room temperature (21–23 °C)
[18] = water, 22 °C, thermodynamic from solid, Solubility in H2O, solvent water; room temperature (21–23 °C)
[19] = hexane (C6H14), 22 °C, organic solvent or mixture, thermodynamic from solid, Solubility in C6H14, solvent hexane (C6H14); room temperature (21–23 °C); 2 mg compound, solvent added until dissolution or 10.0 mL
[20] = solvent CH2Cl2/MeOH (4:1, v/v); room temperature (21–23 °C)

SMILES: c1cncc([C@@H]2CCCCN2)c1 [Anabasine]
- Solubility in CH2Cl2/MeOH (4:1): 70.0 mg/mL (≈ 431 mM)
- solubility [1]: < 0.19 mg/mL
- solubility (22 °C, organic solvent or mixture, thermodynamic from solid, Solubility in CH2Cl2): 10.3 mg/mL (≈ 63.5 mM)
- solubility (22 °C, organic solvent or mixture, thermodynamic from solid, Solubility in CH2Cl2/MeOH (4:1)): < 100 mg/mL
- solubility (22 °C, organic solvent or mixture, thermodynamic from solid, Solubility in EtOH): 97 mg/mL (≈ 598 mM)
- solubility (22 °C, organic solvent or mixture, thermodynamic from solid, Solubility in MeOH): 103 mg/mL (≈ 635 mM)
- solubility (22 °C, organic solvent or mixture, thermodynamic from solid, Solubility in MeOH/H2O (7:3)): 109 mg/mL (≈ 672 mM)
- solubility (22 °C, water, thermodynamic from solid, Solubility in H2O): < 0.19 mg/mL

SMILES: C1=CCC(c2cccnc2)NC1 (centres unmarked) [Anatabine]
- solubility [2]: 217 mg/mL (≈ 1350 mM)
- solubility [3]: 442 mg/mL (≈ 2760 mM)
- solubility [4]: 512 mg/mL (≈ 3200 mM)
- solubility [5]: 490 mg/mL (≈ 3060 mM)
- solubility [6]: 444 mg/mL (≈ 2770 mM)
- solubility [7]: 193 mg/mL (≈ 1200 mM)
- solubility [8]: 100 mg/mL (≈ 624 mM)

SMILES: C=C1CC/C=C(/C)CC[C@@H]2[C@@H]1CC2(C)C [Caryophyllene]
- Solubility in MeOH/H2O (7:3) [9]: NS (not soluble, insoluble in the solvent at the tested concentration range (0.19–558 mg/mL))
- Solubility in EtOH [10]: 196 mg/mL (≈ 959 mM)
- Solubility in MeOH [11]: 36.2 mg/mL (≈ 177 mM)
- Solubility in H2O [12]: NS (not soluble, insoluble in the solvent at the tested concentration range (0.19–558 mg/mL))

- solubility [1]: < 0.19 mg/mL
- solubility [13]: 208 mg/mL (≈ 1180 mM)
- solubility [14]: 139 mg/mL (≈ 789 mM)
- solubility [15]: 203 mg/mL (≈ 1150 mM)
- solubility [16]: 190 mg/mL (≈ 1080 mM)
- solubility [17]: 235 mg/mL (≈ 1330 mM)
- solubility [18]: 145 mg/mL (≈ 823 mM)
SMILES: CN1C(=O)CC[C@H]1c1cccnc1 [Cotinine]

- solubility [13]: 348 mg/mL (≈ 1560 mM)
- solubility [14]: 0.75 mg/mL (≈ 3.37 mM)
- solubility [15]: 382 mg/mL (≈ 1720 mM)
- solubility [16]: 376 mg/mL (≈ 1690 mM)
- solubility [19]: 400 mg/mL (≈ 1800 mM)
- solubility [17]: 466 mg/mL (≈ 2100 mM)
- solubility [18]: < 0.19 mg/mL
SMILES: CC(C)=CCC/C(C)=C/CC/C(C)=C/CO [Farnesol]

- solubility [13]: 462 mg/mL (≈ 3000 mM)
- solubility [14]: 77.3 mg/mL (≈ 501 mM)
- solubility [15]: 440 mg/mL (≈ 2850 mM)
- solubility [16]: 454 mg/mL (≈ 2940 mM)
- solubility [19]: 422 mg/mL (≈ 2740 mM)
- solubility [17]: 462 mg/mL (≈ 3000 mM)
- solubility [18]: 0.57 mg/mL (≈ 3.7 mM)
SMILES: C=CC(C)(O)CCC=C(C)C (centres unmarked) [Linalool]

SMILES: CCCCC/C=C\C/C=C\CCCCCCCC(=O)O [Linoleic acid]
- solubility [2]: 374 mg/mL (≈ 1330 mM)
- solubility [3]: 504 mg/mL (≈ 1800 mM)
- solubility [4]: 502 mg/mL (≈ 1790 mM)
- solubility [5]: 558 mg/mL (≈ 1990 mM)
- solubility [6]: 526 mg/mL (≈ 1880 mM)
- solubility [7]: < 0.19 mg/mL
- solubility [8]: < 0.19 mg/mL

SMILES: CC1=C[C@H](O)CC(C)(C)[C@H]1/C=C/C(C)=C/C=C/C(C)=C/C=C/C=C(C)/C=C/C=C(C)/C=C/C1=C(C)C[C@@H](O)CC1(C)C [Lutein]
- solubility [2]: < 0.19 mg/mL
- solubility [3]: < 0.19 mg/mL
- solubility [5]: < 0.19 mg/mL
- solubility [6]: < 0.19 mg/mL
- solubility [7]: < 0.19 mg/mL
- solubility [8]: < 0.19 mg/mL
- Solubility in CH2Cl2/MeOH (4:1) [20]: 4.66 mg/mL (≈ 8.19 mM)
- Solubility in CH2Cl2/MeOH (4:1) (solvent CH2Cl2/MeOH (4:1, v/v); room temperature (21–23 °C); listed as lutein): < 100 mg/mL

SMILES: c1cncc(C2=NCCC2)c1 [Myosmine]
- solubility [2]: 4.27 mg/mL (≈ 29.2 mM)
- solubility [3]: 194 mg/mL (≈ 1330 mM)
- solubility [4]: 175 mg/mL (≈ 1200 mM)
- solubility [5]: 418 mg/mL (≈ 2860 mM)
- solubility [6]: 356 mg/mL (≈ 2440 mM)
- solubility [7]: 231 mg/mL (≈ 1580 mM)
- solubility [8]: 180 mg/mL (≈ 1230 mM)

SMILES: C=CC(=C)CCCC(C)CCCC(C)CCCC(C)C (centres unmarked) [Neophytadiene]
- Solubility in MeOH/H2O (7:3) [9]: NS (not soluble, insoluble in the solvent at the tested concentration range (0.19–558 mg/mL))
- Solubility in EtOH [10]: 57.5 mg/mL (≈ 206 mM)
- Solubility in MeOH [11]: 4.08 mg/mL (≈ 14.6 mM)
- Solubility in H2O [12]: NS (not soluble, insoluble in the solvent at the tested concentration range (0.19–558 mg/mL))

SMILES: NC(=O)c1cccnc1 [Nicotinamide]
- solubility [3]: < 0.19 mg/mL
- solubility [5]: 20.8 mg/mL (≈ 170 mM)
- solubility [7]: 114 mg/mL (≈ 933 mM)
- solubility [19]: < 0.19 mg/mL
- solubility [17]: 66.3 mg/mL (≈ 543 mM)
- Solubility in CH2Cl2/MeOH (4:1) [20]: 37.3 mg/mL (≈ 305 mM)
- Solubility in CH2Cl2/MeOH (4:1) (solvent CH2Cl2/MeOH (4:1, v/v); room temperature (21–23 °C); listed as nicotinamide): < 100 mg/mL
- solubility [18]: 150 mg/mL (≈ 1230 mM)
